Values after ≈ are worked out from the molar mass of the structure shown. Active and inactive are the calls of the source. No cut-off for these calls is given here.
Assays:
Homo sapiens = species: Homo sapiens; test: Selectivity ratio of IC50 for recombinant full length human CDK2/CyclinE expressed in insect cells to IC50 for Inhibition of recombinant full length human N-terminal GST-fused CDK9 (1 to 372 residues)/His-tagged CyclinT1 (1 to 726 residues) expressed in baculovirus infected insect cells
[1] = Half-life in Beagle dog at […], iv administered over 0.25 hrs formulated as solution in DMSO/Captisol; type: ADME, organism-based, Canis lupus familiaris; conditions: in vivo, dose 0.24 µmol/kg
[2] = Drug metabolism in human liver microsomes assessed as 3-(4-(2-((1S,3R)-3-acetamidocyclohexanecarboxamido)-5-fluoropyridin-4-yl)-1H-pyrazol-5-yl)-2,2-dimethylpropanoic acid formation at 10 uM measured after 1 hr in presence of NADPH by LC-UV-MS analysis; type: ADME, Microsome
[3] = molecular target: Cyclin-dependent kinase 9 (Homo sapiens, UniProt P50750)
Chain of Cyclin-dependent kinase 9 (P50750 whole entry): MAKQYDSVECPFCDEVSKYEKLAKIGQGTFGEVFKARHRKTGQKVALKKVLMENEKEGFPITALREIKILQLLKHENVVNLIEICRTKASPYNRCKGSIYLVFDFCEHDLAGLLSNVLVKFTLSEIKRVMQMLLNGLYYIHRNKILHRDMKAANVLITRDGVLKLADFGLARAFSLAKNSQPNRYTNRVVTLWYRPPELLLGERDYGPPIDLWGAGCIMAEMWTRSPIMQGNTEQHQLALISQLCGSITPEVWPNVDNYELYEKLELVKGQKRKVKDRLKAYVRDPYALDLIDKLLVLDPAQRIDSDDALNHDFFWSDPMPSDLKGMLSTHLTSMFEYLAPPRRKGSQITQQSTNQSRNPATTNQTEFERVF

[4] = Volume of distribution at steady state in Beagle dog at […], iv administered over 0.25 hrs formulated as solution in DMSO/Captisol; type: ADME, organism-based, Canis lupus familiaris; conditions: in vivo, dose 0.24 µmol/kg, read-out: Vdss
[5] = Drug metabolism in human hepatocytes assessed as 3-(4-(2-((1S,3R)-3-acetamidocyclohexanecarboxamido)-5-fluoropyridin-4-yl)-1H-pyrazol-5-yl)-2,2-dimethylpropanoic acid metabolite formation; type: ADME, cell-based, Hepatocyte
[6] = Drug metabolism in human liver microsomes assessed as (1S,3R)-3-acetamido-N-(5-fluoro-4-(5-(3-hydroxy-2,2-dimethylpropyl)-1H-pyrazol-4-yl)pyridin-2-yl)cyclohexanecarboxamide formation at 10 uM measured after 1 hr in presence of NADPH by LC-UV-MS analysis; type: ADME, Microsome
[7] = Volume of distribution at steady state in cynomolgus monkey at 0.46 umol/kg, iv administered over 0.25 hrs formulated as solution in DMA/PEG400/Tween80; type: ADME, organism-based, Macaca fascicularis; conditions: in vivo, dose 0.46 µmol/kg, read-out: Vdss
[8] = molecular target: Dual specificity tyrosine-phosphorylation-regulated kinase 1A (Homo sapiens) (UniProt Q13627); test: Inhibition of human recombinant full length GST-tagged DYRK1A expressed in baculovirus infected cells at 0.1 uM incubated for 60 mins by TR-FRET based LanthaScreen Eu kinase binding assay relative to control
[9] = molecular target: Mitogen-activated protein kinase 15 (Homo sapiens) (UniProt Q8TD08); test: Inhibition of human recombinant N-terminal FLAG-tagged ERK7 expressed in Sf9 insect cells at 0.1 uM incubated for 60 mins by TR-FRET based LanthaScreen Eu kinase binding assay relative to control
Chain of Mitogen-activated protein kinase 15 (Homo sapiens) (Q8TD08 whole entry): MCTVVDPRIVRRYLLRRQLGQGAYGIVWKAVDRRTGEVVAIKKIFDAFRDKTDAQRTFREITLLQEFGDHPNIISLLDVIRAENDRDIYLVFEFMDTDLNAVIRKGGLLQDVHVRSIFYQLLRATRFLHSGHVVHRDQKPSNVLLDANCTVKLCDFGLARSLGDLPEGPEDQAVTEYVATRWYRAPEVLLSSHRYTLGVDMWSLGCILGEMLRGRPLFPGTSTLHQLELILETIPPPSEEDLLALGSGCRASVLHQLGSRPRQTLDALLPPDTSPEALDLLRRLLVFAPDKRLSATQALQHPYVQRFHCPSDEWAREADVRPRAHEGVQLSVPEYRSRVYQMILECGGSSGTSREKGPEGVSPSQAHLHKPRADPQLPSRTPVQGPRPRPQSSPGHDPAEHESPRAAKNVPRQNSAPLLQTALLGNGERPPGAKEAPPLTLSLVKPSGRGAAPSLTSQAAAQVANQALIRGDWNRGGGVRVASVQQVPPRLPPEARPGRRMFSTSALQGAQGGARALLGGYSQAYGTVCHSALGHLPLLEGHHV

[10] = molecular target: Cyclin-dependent kinase 9 (Mus musculus) (UniProt Q99J95); test: In-vivo inhibition of CDK9 in mouse xenografted with human MV4-11 cells assessed as reduction in Mcl-1 at 5 to 15 mg/kg, ip BID administered at 2 hrs dose interval with 2 days on and 5 days off dosing schedule by Western blot analysis; type: functional, organism-based; conditions: dose 5-15 mg/kg
Chain of Cyclin-dependent kinase 9 (Mus musculus) (Q99J95 whole entry, the tested form may be a part): as the sequence (P50750 whole entry) above, with S17T, R37K, K40Q, N258K, Y262F counted along it

[11] = molecular target: Mitogen-activated protein kinase kinase kinase kinase 4 (Homo sapiens) (UniProt O95819); test: Inhibition of recombinant human GST-tagged MAP4K4 catalytic domain expressed in baculovirus expression system at 1 uM by Lanthascreen assay relative to control; conditions: time 60.0 min
Chain of Mitogen-activated protein kinase kinase kinase kinase 4 (Homo sapiens) (O95819 2-1239 limits assumed): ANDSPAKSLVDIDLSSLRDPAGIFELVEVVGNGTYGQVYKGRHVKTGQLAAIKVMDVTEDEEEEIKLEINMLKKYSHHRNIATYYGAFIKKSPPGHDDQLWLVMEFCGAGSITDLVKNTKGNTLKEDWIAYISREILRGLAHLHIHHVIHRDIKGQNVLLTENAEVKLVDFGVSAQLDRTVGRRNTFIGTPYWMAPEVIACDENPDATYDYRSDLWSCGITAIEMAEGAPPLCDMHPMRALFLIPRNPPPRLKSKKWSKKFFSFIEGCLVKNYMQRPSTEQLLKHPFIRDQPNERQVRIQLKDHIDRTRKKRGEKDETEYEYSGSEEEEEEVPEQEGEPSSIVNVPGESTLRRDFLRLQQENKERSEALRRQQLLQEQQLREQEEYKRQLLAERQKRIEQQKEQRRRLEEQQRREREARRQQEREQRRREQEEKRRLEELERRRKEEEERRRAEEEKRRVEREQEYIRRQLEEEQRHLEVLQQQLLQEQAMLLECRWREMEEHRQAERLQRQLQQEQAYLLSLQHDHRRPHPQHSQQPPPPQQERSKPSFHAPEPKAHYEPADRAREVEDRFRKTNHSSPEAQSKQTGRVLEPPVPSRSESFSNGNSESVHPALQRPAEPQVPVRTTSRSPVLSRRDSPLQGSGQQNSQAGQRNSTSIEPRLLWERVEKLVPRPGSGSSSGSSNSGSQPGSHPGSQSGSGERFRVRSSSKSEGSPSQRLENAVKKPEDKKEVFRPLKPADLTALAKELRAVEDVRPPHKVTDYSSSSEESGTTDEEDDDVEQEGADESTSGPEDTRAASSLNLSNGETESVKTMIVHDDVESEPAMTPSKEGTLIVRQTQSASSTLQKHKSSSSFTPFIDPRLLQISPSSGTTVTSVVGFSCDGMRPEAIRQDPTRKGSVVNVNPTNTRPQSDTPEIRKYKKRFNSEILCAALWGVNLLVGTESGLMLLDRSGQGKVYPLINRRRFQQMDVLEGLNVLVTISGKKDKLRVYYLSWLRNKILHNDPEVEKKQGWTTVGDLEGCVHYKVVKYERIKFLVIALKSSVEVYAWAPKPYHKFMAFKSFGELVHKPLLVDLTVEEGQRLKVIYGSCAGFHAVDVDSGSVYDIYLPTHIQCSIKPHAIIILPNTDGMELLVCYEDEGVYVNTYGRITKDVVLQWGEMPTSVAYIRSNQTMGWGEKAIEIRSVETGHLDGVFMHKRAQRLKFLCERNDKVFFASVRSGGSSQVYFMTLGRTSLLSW

[12] = Drug metabolism in human hepatocytes assessed 3-(4-(2-((1S,3R)-3-acetamidocyclohexanecarboxamido)-5-chloropyridin-4-yl)-1H-pyrazol-5-yl)-2,2-dimethylpropanoic acid metabolite formation; type: ADME, cell-based, Hepatocyte
[13] = molecular target: Dual specificity tyrosine-phosphorylation-regulated kinase 2 (Homo sapiens, UniProt Q92630); test: Inhibition of DYRK2 (unknown origin) in presence of 5 mM ATP
Chain of Dual specificity tyrosine-phosphorylation-regulated kinase 2 (Q92630 whole entry): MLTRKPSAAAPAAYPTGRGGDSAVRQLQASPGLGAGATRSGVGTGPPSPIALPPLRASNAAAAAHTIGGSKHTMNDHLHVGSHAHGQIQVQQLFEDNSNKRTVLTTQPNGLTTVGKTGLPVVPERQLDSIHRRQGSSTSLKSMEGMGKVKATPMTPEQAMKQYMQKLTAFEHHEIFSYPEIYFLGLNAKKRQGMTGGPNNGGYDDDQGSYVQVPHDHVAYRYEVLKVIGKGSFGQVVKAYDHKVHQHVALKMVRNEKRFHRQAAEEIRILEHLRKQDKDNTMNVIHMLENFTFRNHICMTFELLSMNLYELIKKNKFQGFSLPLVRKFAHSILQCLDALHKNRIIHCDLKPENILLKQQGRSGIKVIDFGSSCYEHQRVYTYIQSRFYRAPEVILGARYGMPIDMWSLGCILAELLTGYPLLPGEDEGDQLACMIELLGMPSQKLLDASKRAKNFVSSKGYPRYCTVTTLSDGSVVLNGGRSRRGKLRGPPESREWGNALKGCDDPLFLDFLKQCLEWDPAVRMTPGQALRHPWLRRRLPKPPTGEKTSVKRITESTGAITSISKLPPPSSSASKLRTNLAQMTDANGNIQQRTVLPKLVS

[14] = molecular target: Cyclin-dependent kinase 9 (Mus musculus) (UniProt Q99J95); test: In-vivo inhibition of CDK9 in mouse xenografted with human MV4-11 cells assessed as reduction in RNA Polymerase 2 CTD phosphorylation at Ser2 residues at 5 to 15 mg/kg, ip BID administered at 2 hrs dose interval with 2 days on and 5 days off dosing schedule by Western blot analysis; type: functional, organism-based; conditions: dose 5-15 mg/kg
[15] = Intrinsic clearance in monkey cryopreserved hepatocytes assessed per million cells […]; type: ADME, cell-based, Macaca mulatta, Hepatocyte; conditions: rhesus monkey, read-out: CLH
[16] = molecular target: Casein kinase I isoform gamma-2 (Homo sapiens, UniProt P78368); test: Inhibition of CK1gamma2 (unknown origin) in presence of 5 mM ATP
Chain of Casein kinase I isoform gamma-2 (P78368 whole entry, canonical isoform): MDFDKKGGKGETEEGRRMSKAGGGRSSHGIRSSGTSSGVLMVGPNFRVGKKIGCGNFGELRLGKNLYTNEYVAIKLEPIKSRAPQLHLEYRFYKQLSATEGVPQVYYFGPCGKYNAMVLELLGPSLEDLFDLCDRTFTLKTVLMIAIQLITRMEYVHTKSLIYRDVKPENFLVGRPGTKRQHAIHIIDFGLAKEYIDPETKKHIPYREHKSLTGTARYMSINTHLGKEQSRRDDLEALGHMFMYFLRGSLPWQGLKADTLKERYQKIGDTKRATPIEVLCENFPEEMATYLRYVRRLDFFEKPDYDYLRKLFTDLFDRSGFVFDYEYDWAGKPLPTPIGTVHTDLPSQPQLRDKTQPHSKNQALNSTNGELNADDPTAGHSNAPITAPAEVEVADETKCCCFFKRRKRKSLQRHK

[17] = molecular target: Mitogen-activated protein kinase 8 (Homo sapiens, UniProt P45983); test: Inhibition of JNK1 (unknown origin) in presence of 5 mM ATP
Chain of Mitogen-activated protein kinase 8 (P45983 whole entry): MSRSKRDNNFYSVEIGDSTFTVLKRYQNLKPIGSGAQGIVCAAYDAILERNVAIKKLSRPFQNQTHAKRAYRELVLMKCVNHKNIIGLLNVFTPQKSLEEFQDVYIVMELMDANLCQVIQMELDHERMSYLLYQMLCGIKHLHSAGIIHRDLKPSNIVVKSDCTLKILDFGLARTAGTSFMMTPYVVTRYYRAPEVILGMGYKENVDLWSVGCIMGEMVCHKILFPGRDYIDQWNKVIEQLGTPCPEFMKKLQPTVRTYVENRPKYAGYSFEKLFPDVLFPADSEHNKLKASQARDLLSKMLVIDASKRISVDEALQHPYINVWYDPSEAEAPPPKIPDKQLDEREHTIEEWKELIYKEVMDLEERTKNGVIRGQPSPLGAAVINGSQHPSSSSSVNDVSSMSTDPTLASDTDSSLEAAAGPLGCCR

[18] = molecular target: Cyclin-dependent kinase 9 (Mus musculus) (UniProt Q99J95); test: In-vivo inhibition of CDK9 in CB17 SCID mouse xenografted with human NOMO1 cells assessed as reduction in RNA Polymerase 2 CTD phosphorylation at Ser2 residues administered intraperitoneally twice at 2 hrs dosing interval with 2 days on and 5 days off dosing schedule by Western blot analysis; type: functional; conditions: dose 5-15 mg/kg
[19] = molecular target: Glycogen synthase kinase-3 alpha (Homo sapiens, UniProt P49840); test: Inhibition of GSK3alpha (unknown origin) in presence of 5 mM ATP
Chain of Glycogen synthase kinase-3 alpha (P49840 whole entry): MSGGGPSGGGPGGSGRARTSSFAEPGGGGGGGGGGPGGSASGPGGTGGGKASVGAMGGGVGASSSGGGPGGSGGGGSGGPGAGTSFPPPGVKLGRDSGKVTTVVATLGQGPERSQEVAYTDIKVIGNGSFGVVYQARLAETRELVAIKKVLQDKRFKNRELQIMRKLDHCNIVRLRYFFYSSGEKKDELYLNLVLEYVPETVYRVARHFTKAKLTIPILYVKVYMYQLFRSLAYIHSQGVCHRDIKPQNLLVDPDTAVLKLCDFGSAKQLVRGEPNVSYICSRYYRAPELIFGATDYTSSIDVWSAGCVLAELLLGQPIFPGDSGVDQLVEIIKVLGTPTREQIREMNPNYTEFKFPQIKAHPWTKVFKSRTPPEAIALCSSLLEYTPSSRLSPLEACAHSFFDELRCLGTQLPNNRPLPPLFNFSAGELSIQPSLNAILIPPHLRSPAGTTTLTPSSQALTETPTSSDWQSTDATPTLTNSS

[20] = Volume of distribution at steady state in mouse at 2.3 umol/kg, iv formulated as solution; type: ADME, organism-based; conditions: in vivo, dose 2.3 µmol/kg, read-out: Vdss
[21] = Clearance in Beagle dog plasma at 0.23 umol/kg, iv administered over 0.25 hrs formulated as solution in 10% DMSO/90% water; type: ADME, organism-based, Canis lupus familiaris; conditions: dose 0.23 µmol/kg
NOMO-1 [22] = test: Antitumor activity against human NOMO1 cells xenografted in CB17 SCID mouse assessed as tumor regression at 15 mg/kg, ip BID administered at 2 hrs dosing interval with 2 days on and 5 days off dosing schedule measured 12 days post initial dose; type: functional; conditions: time 12 day
NOMO-1 [23] = test: Antitumor activity against human NOMO1 cells xenografted in CB17 SCID mouse assessed as cell death at 5 mg/kg, ip BID administered at 2 hrs dosing interval with 2 days on and 5 days off dosing schedule; type: functional, organism-based
[24] = Drug metabolism in human liver microsomes assessed as (1S,3R)-3-acetamido-N-(5-chloro-4-(5-(3-hydroxy-2,2-dimethylpropyl)-1H-pyrazol-4-yl)pyridin-2-yl)cyclohexanecarboxamide formation at 10 uM measured after 1 hr in presence of NADPH by LC-UV-MS analysis; type: ADME, Microsome
[25] = Solubility of compound in pH 4 0.1 M acetate buffer using crystalline form of sample; type: physicochemical
[26] = Drug metabolism in human liver microsome assessed as (1S,3R)-3-acetamido-N-(5-chloro-4-(5-(4-hydroxybutyl)-1H-pyrazol-4-yl)pyridin-2-yl)cyclohexanecarboxamide formation at 10 uM measured after 1 hr in presence of NADPH by LC-UV-MS analysis; type: ADME; conditions: microsomes
[27] = Half-life in Beagle dog at 5.2 umol/kg, iv administered over 0.25 hrs formulated as solution in 5% DMSO; type: ADME, organism-based, Canis lupus familiaris; conditions: in vivo, dose 5.2 µmol/kg

For CC(=O)N[C@@H]1CCC[C@H](C(=O)Nc2cc(-c3cnn4c3CC(C)(C)C4)c(F)cn2)C1, the Ratio IC50 (Homo sapiens) was 16, the half-life at 0.25 h [1] was 25.8 min and the Drug metabolism [2] was “Metabolite_Detected”. For the same compound, the IC50 [3] was over 3 µM, the Vd at 0.25 h [4] was 1.2 L/kg and the Drug metabolism [5] was “Metabolite_Detected”. For the same compound, the Drug metabolism [6] was “Metabolite_Detected”.
For CC(=O)N[C@@H]1CCC[C@H](C(=O)Nc2cc(-c3cnn4c3CC(C)(C)C4)c(Cl)cn2)C1 [ZEMIRCICLIB], the Vd [7] was 1.3 L/kg, the inhibition [8] was 80% and the inhibition [9] was 83%. The inhibition [10] was “Active”, the inhibition [11] was 85% and the Drug metabolism [12] was “Metabolite_Detected”. For the same compound, the IC50 [13] was 8.62 µM, the inhibition [14] was “Active” and the hepatocyte CLint [15] was 32 µL/min/1e6 cells. The IC50 [16] was 6.66 µM, the IC50 [17] was 2.8 µM and the inhibition [18] was “Dose-dependent effect”. It also gave an IC50 [19] of 0.187 µM, a Vd [20] of 0.45 L/kg and a clearance [21] of 16 mL/min/kg. For the same compound, the Activity (NOMO-1 [22]) was 65%, the Activity (NOMO-1 [23]) was “Active” and the Drug metabolism [24] was “Metabolite_Detected”.
In the case of CC(=O)N[C@@H]1CCC[C@H](C(=O)Nc2cc(-c3cnn4c3CCCC4)c(Cl)cn2)C1, the solubility thermodynamic [25] is reported as 210 µg/mL (≈ 505 µM), the Drug metabolism [26] is reported as “Metabolite_Detected” and the half-life [27] is reported as 30 min.
